Assay results published in PubChem BioAssay (NCI).
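Dose response: 5 concentrations. Exposure: 48 h. Format: 96-well plates. Endpoint: linear interpolation; highest concentration if not reached. The concentration for 50% growth inhibition is given as GI50. TGI: concentration producing complete growth inhibition.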

Assays:
Assay in all cases: DTP human tumour cell line panel, 48 h
HOP-62 NSCLC = test system: HOP-62 NSCLC
HCC-2998 colon = test system: HCC-2998 colon
OVCAR-5 ovarian = test system: OVCAR-5 ovarian
OVCAR-4 ovarian = test system: OVCAR-4 ovarian
PC-3 prostate = test system: PC-3 prostate
SK-MEL-5 melanoma = test system: SK-MEL-5 melanoma
A498 renal = test system: A498 renal
MCF7 breast = test system: MCF7 breast
EKVX NSCLC = test system: EKVX NSCLC
CCRF-CEM leukemia = test system: CCRF-CEM leukemia
MALME-3M melanoma = test system: MALME-3M melanoma
HS 578T breast = test system: HS 578T breast
SNB-19 CNS = test system: SNB-19 CNS
MDA-MB-231 breast = test system: MDA-MB-231 breast
NCI-H522 lung = test system: NCI-H522 lung
IGROV1 ovarian = test system: IGROV1 ovarian
HCT-15 colon = test system: HCT-15 colon
SW-620 colon = test system: SW-620 colon
TK-10 renal = test system: TK-10 renal
SF-539 CNS = test system: SF-539 CNS
KM12 colon = test system: KM12 colon
SNB-75 CNS = test system: SNB-75 CNS
MOLT-4 leukemia = test system: MOLT-4 leukemia
SK-MEL-2 melanoma = test system: SK-MEL-2 melanoma
HOP-92 NSCLC = test system: HOP-92 NSCLC
SK-OV-3 ovarian = test system: SK-OV-3 ovarian
SR leukemia = test system: SR leukemia
CAKI-1 renal = test system: CAKI-1 renal
ACHN renal = test system: ACHN renal
UACC-257 melanoma = test system: UACC-257 melanoma
K-562 leukemia = test system: K-562 leukemia
U251 CNS = test system: U251 CNS
T-47D breast = test system: T-47D breast
UACC-62 melanoma = test system: UACC-62 melanoma
SF-268 CNS = test system: SF-268 CNS
RXF 393 renal = test system: RXF 393 renal
M14 melanoma = test system: M14 melanoma
SN12C renal = test system: SN12C renal
NCI-H226 lung = test system: NCI-H226 lung
NCI-H460 lung = test system: NCI-H460 lung
A549 NSCLC = test system: A549 NSCLC
786-0 renal = test system: 786-0 renal
BT-549 breast = test system: BT-549 breast
NCI/ADR-RES ovarian = test system: NCI/ADR-RES ovarian
HT29 colon = test system: HT29 colon
SK-MEL-28 melanoma = test system: SK-MEL-28 melanoma
OVCAR-8 ovarian = test system: OVCAR-8 ovarian
UO-31 renal = test system: UO-31 renal
SF-295 CNS = test system: SF-295 CNS
COLO 205 colon = test system: COLO 205 colon
HL-60(TB) leukemia = test system: HL-60(TB) leukemia
DU-145 prostate = test system: DU-145 prostate
MDA-MB-435 = test system: MDA-MB-435
RPMI-8226 leukemia = test system: RPMI-8226 leukemia
LOX IMVI melanoma = test system: LOX IMVI melanoma
OVCAR-3 ovarian = test system: OVCAR-3 ovarian
HCT-116 colon = test system: HCT-116 colon

SMILES: Cc1cc2c(C(N)=O)cccc2n1-c1nc2c(c(NCc3ccccc3)n1)CCCN2
- GI50 (HOP-62 NSCLC): 217 nM
- TGI (HOP-62 NSCLC): 454 nM
- GI50 (HCC-2998 colon): 170 nM
- TGI (HCC-2998 colon): 325 nM
- GI50 (OVCAR-5 ovarian): 230 nM
- TGI (OVCAR-5 ovarian): 585 nM
- GI50 (OVCAR-4 ovarian): 178 nM
- TGI (OVCAR-4 ovarian): 396 nM
- GI50 (PC-3 prostate): 287 nM
- TGI (PC-3 prostate): 825 nM
- GI50 (SK-MEL-5 melanoma): 59.8 nM
- TGI (SK-MEL-5 melanoma): 181 nM
- GI50 (A498 renal): 212 nM
- TGI (A498 renal): 362 nM
- GI50 (MCF7 breast): 85.3 nM
- TGI (MCF7 breast): 747 nM
- GI50 (EKVX NSCLC): 256 nM
- TGI (EKVX NSCLC): 630 nM
- GI50 (CCRF-CEM leukemia): 295 nM
- TGI (CCRF-CEM leukemia): 19800 nM
- GI50 (MALME-3M melanoma): 178 nM
- TGI (MALME-3M melanoma): 346 nM
- GI50 (HS 578T breast): 262 nM
- TGI (HS 578T breast): 745 nM
- GI50 (SNB-19 CNS): 296 nM
- TGI (SNB-19 CNS): 765 nM
- GI50 (MDA-MB-231 breast): 186 nM
- TGI (MDA-MB-231 breast): 394 nM
- GI50 (NCI-H522 lung): 164 nM
- TGI (NCI-H522 lung): 359 nM
- GI50 (IGROV1 ovarian): 194 nM
- TGI (IGROV1 ovarian): 439 nM
- GI50 (HCT-15 colon): 162 nM
- TGI (HCT-15 colon): 467 nM
- GI50 (SW-620 colon): 219 nM
- TGI (SW-620 colon): 507 nM
- GI50 (TK-10 renal): 378 nM
- TGI (TK-10 renal): 809 nM
- GI50 (SF-539 CNS): 205 nM
- TGI (SF-539 CNS): 423 nM
- GI50 (KM12 colon): 195 nM
- TGI (KM12 colon): 400 nM
- GI50 (SNB-75 CNS): 153 nM
- TGI (SNB-75 CNS): 342 nM
- GI50 (MOLT-4 leukemia): 241 nM
- TGI (MOLT-4 leukemia): 1160 nM
- GI50 (SK-MEL-2 melanoma): 112 nM
- TGI (SK-MEL-2 melanoma): 265 nM
- GI50 (HOP-92 NSCLC): 261 nM
- TGI (HOP-92 NSCLC): 541 nM
- GI50 (SK-OV-3 ovarian): 320 nM
- TGI (SK-OV-3 ovarian): 813 nM
- GI50 (SR leukemia): 117 nM
- TGI (SR leukemia): 525 nM
- GI50 (CAKI-1 renal): 151 nM
- TGI (CAKI-1 renal): 333 nM
- GI50 (ACHN renal): 236 nM
- TGI (ACHN renal): 791 nM
- GI50 (UACC-257 melanoma): 167 nM
- TGI (UACC-257 melanoma): 347 nM
- GI50 (K-562 leukemia): 95.5 nM
- TGI (K-562 leukemia): 2920 nM
- GI50 (U251 CNS): 179 nM
- TGI (U251 CNS): 331 nM
- GI50 (T-47D breast): 185 nM
- TGI (T-47D breast): 431 nM
- GI50 (UACC-62 melanoma): 155 nM
- TGI (UACC-62 melanoma): 330 nM
- GI50 (SF-268 CNS): 213 nM
- TGI (SF-268 CNS): 487 nM
- GI50 (RXF 393 renal): 126 nM
- TGI (RXF 393 renal): 273 nM
- GI50 (M14 melanoma): 212 nM
- TGI (M14 melanoma): 432 nM
- GI50 (SN12C renal): 134 nM
- TGI (SN12C renal): 335 nM
- GI50 (NCI-H226 lung): 158 nM
- TGI (NCI-H226 lung): 332 nM
- GI50 (NCI-H460 lung): 232 nM
- TGI (NCI-H460 lung): 661 nM
- GI50 (A549 NSCLC): 220 nM
- TGI (A549 NSCLC): 543 nM
- GI50 (786-0 renal): 248 nM
- TGI (786-0 renal): 519 nM
- GI50 (BT-549 breast): 295 nM
- TGI (BT-549 breast): 695 nM
- GI50 (NCI/ADR-RES ovarian): 307 nM
- TGI (NCI/ADR-RES ovarian): 1740 nM
- GI50 (HT29 colon): 215 nM
- TGI (HT29 colon): 485 nM
- GI50 (SK-MEL-28 melanoma): 246 nM
- TGI (SK-MEL-28 melanoma): 593 nM
- GI50 (OVCAR-8 ovarian): 182 nM
- TGI (OVCAR-8 ovarian): 431 nM
- GI50 (UO-31 renal): 215 nM
- TGI (UO-31 renal): 474 nM
- GI50 (SF-295 CNS): 174 nM
- TGI (SF-295 CNS): 352 nM
- GI50 (COLO 205 colon): 195 nM
- TGI (COLO 205 colon): 364 nM
- GI50 (HL-60(TB) leukemia): 228 nM
- TGI (HL-60(TB) leukemia): 1010 nM
- GI50 (DU-145 prostate): 290 nM
- TGI (DU-145 prostate): 783 nM
- GI50 (MDA-MB-435): 164 nM
- TGI (MDA-MB-435): 322 nM
- GI50 (RPMI-8226 leukemia): 40.1 nM
- TGI (RPMI-8226 leukemia): 325 nM
- GI50 (LOX IMVI melanoma): 51.7 nM
- TGI (LOX IMVI melanoma): 206 nM
- GI50 (OVCAR-3 ovarian): 206 nM
- TGI (OVCAR-3 ovarian): 410 nM
- GI50 (HCT-116 colon): 83.1 nM
- TGI (HCT-116 colon): 631 nM
